Tested on: 843126-344-R-J1-PDC complex spheroid viability
Assay: Anticancer human tumor 843126-344-R-J1-PDC patient-derived melanoma cell line growth inhibition [POLQ]
Conditions: for IC50: curve of first compound; for viability, T/C: stronger effect = lower value
Procedure: Multicellular complex tumor spheroid response to Polymerase (POL) inhibitors (novobiocin, ART-558, RP6685) in combination with a variety of drugs and investigational agents in selected tumor cell lines
The POL inhibitors (novobiocin, ART-558, and RP6685) were evaluated both individually and in combination with standard of care and investigational anticancer small molecules within a complex spheroid model of solid tumors. . Complex spheroids include a stromal component modeled by human endothelial cells (HUVEC) and fibroblasts modeled by human mesenchymal stem cells (MSCs). The concentration ranges selected for each drug and investigational agent were based upon clinically achievable concentrations if the clinical Cmax of the agent was known.
Compounds. The drugs and investigational agents: novobiocin (NSC847541), ART-558 (NSC835418), RP-6685 (NSC848927), peposertib (NSC802822), ceralasertib (NSC780249), elimusertib (NSC800525), camonsertib (NSC841442), AZD-1390 (NSC803789), olaparib (NSC753686), talazoparib (NSC767125), rucaparib (NSC756644), sotorasib (NSC818433), MRTX-1133 (NSC836407), SN-38 (NSC673596), topotecan (NSC609699), epotoside (NSC141540), doxorubicin (NSC123127), gemcitabine (NSC613327), 5-fluorouracil (NSC19893), paclitaxel (NSC125973), vemurafenib (NSC761431), MSA-2 (NSC828583), SN-011 (NSC837082), adavosertib (NSC754352), prexasertib (NSC758257), carboplatin (NSC241240) and oxaliplatin (NSC266046), were obtained from the National Cancer Institute (NCI) Developmental Therapeutics Program Chemical Repository (21). The FDA-approved anticancer drug set is available from the Developmental Therapeutics Program at https://dtp.cancer.gov/organization/dscb/obtaining/. […] The stock solutions were prepared in dimethyl sulfoxide (DMSO, Sigma-Aldrich, St. Louis, MO, cat. D2650), except for the platinum compounds which were prepared in saline (Quality Biological, Gaithersburg, MD, cat. 114-055-101), at 800-fold the tested concentration and stored at -70 degrees C prior to their use. All drugs and investigational agents were tested over a range starting from a high concentration at or near the clinical Cmax and decreasing in half-log increments. If the clinical Cmax for an agent had not been determined, the highest concentration tested was 10 microM, except for SN-38, which was tested at a high concentration of 1 microM.
Cell Culture. All cells were maintained in an incubator at 37 degrees C and 5% CO2 with 95% humidity. The PDC lines were cultured according to standard operating procedures established by the NCI PDMR (https://pdmr.cancer.gov). Table 3 of the manuscript, lists the cell lines along with the number of the three cell types plated to form the mct-spheroids and media for tumor cell growth. After thawing, all PDC lines, except 997537-175-T-J1-PDC and 415267-285-R-J2-PDC, were cultured in Matrigel-coated flasks prepared with a working solution of 1X Ham's F-12 nutrient mix, without supplementation (Thermo Fisher Scientific, cat. 11765054), 100 U/mL penicillin-streptomycin (Thermo Fisher Scientific, cat. 15140122), and 2.5% Matrigel (Corning Inc., Corning, NY, cat. 354248) for the first three passages. The two PDC lines 997537-175-T-J1-PDC and 415267-285-R-J2-PDC were cultured on uncoated flasks. The 857933-349-R-J2-PDC line was cultured in 6C/Colon 1B media containing advanced DMEM/F-12 (Thermo Fisher Scientific, cat. 12634028), 10 mM HEPES (Thermo Fisher Scientific, cat. 15630080), 1X GlutaMAX supplement (Thermo Fisher Scientific, cat. 35050061), 0.1 mg/mL primocin (InvivoGen, San Diego, CA, cat. ant-pm-2), 10% defined fetal bovine serum, heat inactivated (HyClone Laboratories Inc., Logan, UT, cat. SH30070.03HI), 50% L-WRN conditioned media (ATCC, cat. CRL-3276), 1.25 mM N-Acetyl-L-cysteine (Sigma-Aldrich, cat. A9165), 10 mM nicotinamide (Sigma-Aldrich, cat. N0636), 1X B-27 supplement (Thermo Fisher Scientific, cat. 17504044), 1X N-2 supplement (Thermo Fisher Scientific, cat. […]

[1] = second compound 0.0316 µM, first compound 0.0316 µM
[2] = second compound 0.0316 µM, first compound 0.1 µM
[3] = second compound 0.1 µM, first compound 0.0316 µM
[4] = second compound 0.1 µM, first compound 0.1 µM
[5] = second compound 0.316 µM, first compound 0.0316 µM
[6] = second compound 0.316 µM, first compound 0.1 µM
[7] = second compound 1 µM, first compound 0.0316 µM
[8] = second compound 1 µM, first compound 0.1 µM
[9] = second compound 3.16 µM, first compound 0.0316 µM
[10] = second compound 3.16 µM, first compound 0.1 µM
[11] = second compound 10 µM, first compound 0.0316 µM
[12] = second compound 10 µM, first compound 0.1 µM
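Wherever viability, T/C is given: spheroids exposed to drugs for seven days before readout.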

C=CC(=O)N1CCN(c2nc(=O)n(-c3c(C)ccnc3C(C)C)c3nc(-c4c(O)cccc4F)c(F)cc23)C(C)C1 (centres undefined) + Nc1ccc(C#CCN(C(=O)Cc2ncc(C(F)(F)F)cc2C(F)(F)F)c2ccc(F)cc2)nn1
IC50 (second compound 0.0316 µM): > 10 µM | IC50 (second compound 0.1 µM): > 10 µM | IC50 (second compound 0.316 µM): > 10 µM | IC50 (second compound 1 µM): > 10 µM | IC50 (second compound 3.16 µM): > 10 µM | IC50 (second compound 10 µM): > 10 µM | viability, T/C [1]: 105% | viability, T/C [2]: 82.8% | viability, T/C (second compound 0.0316 µM, first compound 0.316 µM): 97.3% | viability, T/C (second compound 0.0316 µM, first compound 1 µM): 102% | viability, T/C (second compound 0.0316 µM, first compound 3.16 µM): 101% | viability, T/C (second compound 0.0316 µM, first compound 10 µM): 84.4% | viability, T/C [3]: 104% | viability, T/C [4]: 86.1% | viability, T/C (second compound 0.1 µM, first compound 0.316 µM): 84.9% | viability, T/C (second compound 0.1 µM, first compound 1 µM): 97.8% | viability, T/C (second compound 0.1 µM, first compound 3.16 µM): 99.2% | viability, T/C (second compound 0.1 µM, first compound 10 µM): 85.6% | viability, T/C [5]: 89.3% | viability, T/C [6]: 94.9% | viability, T/C (second compound 0.316 µM, first compound 0.316 µM): 104% | viability, T/C (second compound 0.316 µM, first compound 1 µM): 113% | viability, T/C (second compound 0.316 µM, first compound 3.16 µM): 94.5% | viability, T/C (second compound 0.316 µM, first compound 10 µM): 85.1% | viability, T/C [7]: 101% | viability, T/C [8]: 104% | viability, T/C (second compound 1 µM, first compound 0.316 µM): 107% | viability, T/C (second compound 1 µM, first compound 1 µM): 94.7% | viability, T/C (second compound 1 µM, first compound 3.16 µM): 104% | viability, T/C (second compound 1 µM, first compound 10 µM): 85.4% | viability, T/C [9]: 87.5% | viability, T/C [10]: 88.7% | viability, T/C (second compound 3.16 µM, first compound 0.316 µM): 106% | viability, T/C (second compound 3.16 µM, first compound 1 µM): 92.2% | viability, T/C (second compound 3.16 µM, first compound 3.16 µM): 85.8% | viability, T/C (second compound 3.16 µM, first compound 10 µM): 84.5% | viability, T/C [11]: 83.7% | viability, T/C [12]: 91.1% | viability, T/C (second compound 10 µM, first compound 0.316 µM): 84.1% | viability, T/C (second compound 10 µM, first compound 1 µM): 98.5% | viability, T/C (second compound 10 µM, first compound 3.16 µM): 95.7% | viability, T/C (second compound 10 µM, first compound 10 µM): 81.2%

Cn1ncnc1[C@H]1c2n[nH]c(=O)c3cc(F)cc(c23)N[C@@H]1c1ccc(F)cc1 + Cc1cccc(N(C)C(=O)C2C(O)CCN2c2nc(C)cc(C(F)(F)F)c2C#N)c1
IC50 (second compound 0.0316 µM): > 0.1 µM | IC50 (second compound 0.1 µM): > 0.1 µM | IC50 (second compound 0.316 µM): > 0.1 µM | IC50 (second compound 1 µM): > 0.1 µM | IC50 (second compound 3.16 µM): > 0.1 µM | IC50 (second compound 10 µM): > 0.1 µM | viability, T/C (second compound 0.0316 µM, first compound 0.000316 µM): 83.1% | viability, T/C (second compound 0.0316 µM, first compound 0.001 µM): 80% | viability, T/C (second compound 0.0316 µM, first compound 0.00316 µM): 92.3% | viability, T/C (second compound 0.0316 µM, first compound 0.01 µM): 74.1% | viability, T/C [1]: 91.9% | viability, T/C [2]: 71.8% | viability, T/C (second compound 0.1 µM, first compound 0.000316 µM): 94.8% | viability, T/C (second compound 0.1 µM, first compound 0.001 µM): 91.6% | viability, T/C (second compound 0.1 µM, first compound 0.00316 µM): 96.6% | viability, T/C (second compound 0.1 µM, first compound 0.01 µM): 73% | viability, T/C [3]: 88.7% | viability, T/C [4]: 66% | viability, T/C (second compound 0.316 µM, first compound 0.000316 µM): 82.8% | viability, T/C (second compound 0.316 µM, first compound 0.001 µM): 82.5% | viability, T/C (second compound 0.316 µM, first compound 0.00316 µM): 89.5% | viability, T/C (second compound 0.316 µM, first compound 0.01 µM): 86.3% | viability, T/C [5]: 88.7% | viability, T/C [6]: 86.5% | viability, T/C (second compound 1 µM, first compound 0.000316 µM): 73.2% | viability, T/C (second compound 1 µM, first compound 0.001 µM): 67.6% | viability, T/C (second compound 1 µM, first compound 0.00316 µM): 92.6% | viability, T/C (second compound 1 µM, first compound 0.01 µM): 86.8% | viability, T/C [7]: 76.4% | viability, T/C [8]: 78.6% | viability, T/C (second compound 3.16 µM, first compound 0.000316 µM): 67.4% | viability, T/C (second compound 3.16 µM, first compound 0.001 µM): 78.7% | viability, T/C (second compound 3.16 µM, first compound 0.00316 µM): 88.9% | viability, T/C (second compound 3.16 µM, first compound 0.01 µM): 77.6% | viability, T/C [9]: 87.5% | viability, T/C [10]: 67.3% | viability, T/C (second compound 10 µM, first compound 0.000316 µM): 76.3% | viability, T/C (second compound 10 µM, first compound 0.001 µM): 87.8% | viability, T/C (second compound 10 µM, first compound 0.00316 µM): 84.2% | viability, T/C (second compound 10 µM, first compound 0.01 µM): 77.4% | viability, T/C [11]: 86.2% | viability, T/C [12]: 79.9%
